From PubChem BioAssay (NCI)
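GI50 marks 50% less growth. TGI: concentration producing complete growth inhibition.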

Experiments:
Assay in all cases: NCI tumour cell line growth inhibition, 384-well format
MDA-MB-468 breast = tested on: MDA-MB-468 breast
RPMI-8226 leukemia = tested on: RPMI-8226 leukemia
UACC-257 melanoma = tested on: UACC-257 melanoma
NCI/ADR-RES ovarian = tested on: NCI/ADR-RES ovarian
IGROV1 ovarian = tested on: IGROV1 ovarian
ACHN renal = tested on: ACHN renal
SN12C renal = tested on: SN12C renal
SNB-75 CNS = tested on: SNB-75 CNS
OVCAR-4 ovarian = tested on: OVCAR-4 ovarian
M14 melanoma = tested on: M14 melanoma
SK-MEL-2 melanoma = tested on: SK-MEL-2 melanoma
T-47D breast = tested on: T-47D breast
CCRF-CEM leukemia = tested on: CCRF-CEM leukemia
HCC-2998 colon = tested on: HCC-2998 colon
HOP-62 NSCLC = tested on: HOP-62 NSCLC
SW-620 colon = tested on: SW-620 colon
HL-60(TB) leukemia = tested on: HL-60(TB) leukemia
RXF 393 renal = tested on: RXF 393 renal
COLO 205 colon = tested on: COLO 205 colon
KM12 colon = tested on: KM12 colon
HOP-92 NSCLC = tested on: HOP-92 NSCLC
NCI-H522 lung = tested on: NCI-H522 lung
DU-145 prostate = tested on: DU-145 prostate
CAKI-1 renal = tested on: CAKI-1 renal
786-0 renal = tested on: 786-0 renal
MDA-MB-435 melanoma = tested on: MDA-MB-435 melanoma
MDA-MB-231 breast = tested on: MDA-MB-231 breast
BT-549 breast = tested on: BT-549 breast

**Q.** What does the source list for CC1(C)CCC2=C(O1)c1ccccc1C(=O)C2=O?
**A.** GI50 (MDA-MB-468 breast): 1.2 µM; TGI (MDA-MB-468 breast): 2.45 µM; GI50 (RPMI-8226 leukemia): 1.82 µM; TGI (RPMI-8226 leukemia): 3.23 µM; GI50 (UACC-257 melanoma): 1.67 µM; TGI (UACC-257 melanoma): 3.05 µM; GI50 (NCI/ADR-RES ovarian): 2.08 µM; TGI (NCI/ADR-RES ovarian): 3.74 µM; GI50 (IGROV1 ovarian): 2.02 µM; TGI (IGROV1 ovarian): 3.82 µM; GI50 (ACHN renal): 1.9 µM; TGI (ACHN renal): 3.32 µM; GI50 (SN12C renal): 1.61 µM; TGI (SN12C renal): 2.98 µM; GI50 (SNB-75 CNS): 0.95 µM; TGI (SNB-75 CNS): 2.14 µM; GI50 (OVCAR-4 ovarian): 2 µM; TGI (OVCAR-4 ovarian): 3.43 µM; GI50 (M14 melanoma): 1.94 µM; TGI (M14 melanoma): 3.37 µM; GI50 (SK-MEL-2 melanoma): 3.02 µM; TGI (SK-MEL-2 melanoma): 4.53 µM; GI50 (T-47D breast): 1.36 µM; TGI (T-47D breast): 2.66 µM; GI50 (CCRF-CEM leukemia): 1.89 µM; TGI (CCRF-CEM leukemia): 3.32 µM; GI50 (HCC-2998 colon): 1.75 µM; TGI (HCC-2998 colon): 3.42 µM; GI50 (HOP-62 NSCLC): 1.61 µM; TGI (HOP-62 NSCLC): 2.98 µM; GI50 (SW-620 colon): 1.79 µM; TGI (SW-620 colon): 3.2 µM; GI50 (HL-60(TB) leukemia): 1.44 µM; TGI (HL-60(TB) leukemia): 2.79 µM; GI50 (RXF 393 renal): 1.93 µM; TGI (RXF 393 renal): 3.35 µM; GI50 (COLO 205 colon): 2.27 µM; TGI (COLO 205 colon): 3.73 µM; GI50 (KM12 colon): 2.06 µM; TGI (KM12 colon): 3.8 µM; GI50 (HOP-92 NSCLC): 1.88 µM; TGI (HOP-92 NSCLC): 3.33 µM; GI50 (NCI-H522 lung): 1.84 µM; TGI (NCI-H522 lung): 3.24 µM; GI50 (DU-145 prostate): 1.85 µM; TGI (DU-145 prostate): 3.28 µM; GI50 (CAKI-1 renal): 1.87 µM; TGI (CAKI-1 renal): 3.28 µM; GI50 (786-0 renal): 1.84 µM; TGI (786-0 renal): 3.37 µM; GI50 (MDA-MB-435 melanoma): 1.86 µM; TGI (MDA-MB-435 melanoma): 3.27 µM; GI50 (MDA-MB-231 breast): 1.88 µM; TGI (MDA-MB-231 breast): 3.54 µM; GI50 (BT-549 breast): 1.77 µM; TGI (BT-549 breast): 3.16 µM
